± gives the expanded uncertainty stated by the source.
Tests used:
[1] = molar heat capacity at constant pressure; details: 298.15 K, 101.33 kPa, Small sample (50 mg) DSC
[2] = for mass density: 298.15 K, 101.33 kPa; for Normal melting temperature: DTA
[3] = Molar enthalpy of transition or fusion; details: Crystal; DSC

| SMILES | molar heat capacity at constant pressure ([1]; Liquid) | mass density ([2]; Liquid) | Molar enthalpy of transition or fusion [3] | molar heat capacity at constant pressure ([1]; Crystal) | Normal melting temperature ([2]; Crystal) | mass density ([2]; Crystal) |
| --- | --- | --- | --- | --- | --- | --- |
| CC(=O)c1cccs1 [2-acetylthiophene] | 210.72 ± 10 J/K/mol | 1171 ± 5 kg/m3 | – | – | – | – |
| CC(=O)c1ccc[nH]1 [2-acetylpyrrole] | – | – | 3.37 ± 0.263 kcal/mol | 132.04 ± 6.5 J/K/mol | 89.82 ± 0.4 °C | – |
| CC(=O)c1ccco1 [2-acetylfuran] | – | – | 3.71 ± 0.165 kcal/mol | 140.94 ± 6.6 J/K/mol | 28.47 ± 0.4 °C | 1098 ± 5 kg/m3 |

Source: the NIST ThermoML archive (doi:10.1016/j.tca.2009.04.012)
